Measurements reported in patent US7671201B2, “Phenyl substituted cyclic derivatives” (priority 2003, dated 2010).

Tested on: tobacco budworm (Heliothis virescens [Fabricius])
Details: 0.25 millimolar on the surface of the diet, second instar larvae, five-day exposure; for Percent Mortality: compared to total number of insects infested; for Percent Growth Inhibition: inhibition of insect weight relative to untreated controls
Method: Candidate insecticides were evaluated for activity against the tobacco budworm (Heliothis virescens [Fabricius]) in a surface-treated diet test.
In this test one mL of molten (65-70° C.) wheat germ-based artificial diet was pipetted into each well of a four by six (24 well) multi-well plate (ID#430345-15.5 mm dia.×17.6 mm deep; Corning Costar Corp., One Alewife Center, Cambridge, Mass. 02140). The diet was allowed to cool to ambient temperature before treatment with candidate insecticide.
The robot subsequently pipetted 40 microliters of the so-prepared solution onto the surface of the diet in each of three wells in the 24 multi-well plate. The process was repeated with solutions of seven other candidate insecticides. […] Appropriate untreated controls containing only DMSO on the diet surface were also included in this test.
For evaluations of the insecticidal activity of a candidate insecticide at varying rates of application, the test was established as described above using sub-multiples of the standard 50 millimolar DMSO solution of candidate insecticide. […] In these evaluations there were six replicates of each rate of application placed on the surface of the diet in the 24 multi-well plate, for a total of four rates of application of candidate insecticide in each plate.
In each well of the test plate was placed one second instar tobacco budworm larvae, each weighing approximately five milligrams. After the larvae were placed in each well, the plate was sealed with clear polyfilm adhesive tape. The tape over each well was perforated to ensure an adequate air supply. The plates were then held in a growth chamber at 25° C. and 60% relative humidity for five days (light 14 hours/day).
After the five-day exposure period insecticidal activity for each rate of application of candidate insecticide was assessed as percent inhibition of insect weight relative to the weight of insects from untreated controls, and percent mortality when compared to the total number of insects infested.

Molecule	Percent Mortality	Percent Growth Inhibition
2-{2-[3,4-dichlorophenyl)piperazinyl]ethoxy}-5-(3,3-dichloroprop-2-enyloxy)-1,3-dichlorobenzene [Compound 20]	100%	100%
O=S(=O)(c1ccc(C(F)(F)F)cc1)N1CCN(c2c(Cl)cc(OCC=C(Cl)Cl)cc2Cl)CC1 [Compound 26, 5-(3,3-dichloroprop-2-enyloxy)-1,3-dichloro-2-{4-[4-(trifluoromethyl)phenylsulfonyl]piperazinyl}benzene]	100%	100%
OC1(c2ccc(Cl)cc2)CCN(CCOc2c(Cl)cc(OCC=C(Cl)Cl)cc2Cl)CC1 [Compound 35, 1-{2-[4-(3,3-dichloroprop-2-enyloxy)-2,6-dichlorophenoxy]ethyl}-4-(4-chlorophenyl)piperidin-4-ol]	100%	100%
tert-butyl 4-{[4-(3,3-dichloroprop-2-enyloxy)-2,6-dichlorophenoxy]methyl}piperidinecarboxylate [Compound 4]	100%	100%
